Test results taken from PMC12136037, “Type II kinase inhibitors that target Parkinson’s disease–associated LRRK2” (Science Advances, 2025).
Like-named read-outs stand apart in the source and are kept apart here.

Experiments:
Assay in all cases: DSF 100 kinase selectivity screen;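 also: compound tested at 20 µM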
Assay type in all cases: binding
[1] = target: T1, ~100 representative kinases (Homo sapiens, UniProt P34947); settings: protein GPRK5; average of three replicates
T1 construct: Recombinant protein kinase domains with a concentration of 2 μM
T1 sequence (P34947 whole entry, the tested form may be a part): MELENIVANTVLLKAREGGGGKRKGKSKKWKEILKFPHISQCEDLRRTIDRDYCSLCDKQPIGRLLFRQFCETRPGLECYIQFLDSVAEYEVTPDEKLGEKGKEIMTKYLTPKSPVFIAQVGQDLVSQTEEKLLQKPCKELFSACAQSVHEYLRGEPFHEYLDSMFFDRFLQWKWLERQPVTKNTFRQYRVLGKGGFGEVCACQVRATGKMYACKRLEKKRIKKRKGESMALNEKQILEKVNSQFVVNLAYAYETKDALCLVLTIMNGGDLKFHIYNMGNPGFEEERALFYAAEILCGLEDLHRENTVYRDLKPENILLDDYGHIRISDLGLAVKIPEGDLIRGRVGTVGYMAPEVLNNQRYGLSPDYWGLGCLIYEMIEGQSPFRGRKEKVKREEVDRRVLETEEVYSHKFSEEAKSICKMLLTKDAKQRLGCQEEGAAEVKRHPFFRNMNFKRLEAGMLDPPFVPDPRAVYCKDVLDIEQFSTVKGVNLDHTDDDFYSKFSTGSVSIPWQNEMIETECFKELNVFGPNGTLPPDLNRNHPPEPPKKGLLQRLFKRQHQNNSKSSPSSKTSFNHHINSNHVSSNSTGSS
Procedure, shortened: (§1)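 Each kinase domain, at 2 μM, is mixed with 20 μM test compound and SYPRO Orange in Hepes (20 mM, pH 7.5) with 500 mM NaCl. Temperature is then raised at 3°C/min and fluorescence-monitored unfolding yields the melting temperature change, ΔTm in degrees Celsius.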

[2] = target: T2, ~100 representative kinases (Homo sapiens, UniProt Q16539)
T2 construct: Recombinant protein kinase domains with a concentration of 2 μM
T2 sequence (Q16539 whole entry, the tested form may be a part): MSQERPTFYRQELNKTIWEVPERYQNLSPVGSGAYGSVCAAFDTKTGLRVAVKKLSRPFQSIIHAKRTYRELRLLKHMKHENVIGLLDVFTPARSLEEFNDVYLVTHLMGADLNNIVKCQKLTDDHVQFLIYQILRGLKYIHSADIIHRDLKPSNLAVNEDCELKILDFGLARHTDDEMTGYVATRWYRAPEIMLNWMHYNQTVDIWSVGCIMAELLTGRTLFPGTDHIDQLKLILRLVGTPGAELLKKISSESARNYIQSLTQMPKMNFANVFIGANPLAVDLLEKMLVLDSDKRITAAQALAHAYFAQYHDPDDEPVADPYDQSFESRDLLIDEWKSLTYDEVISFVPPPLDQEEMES
Procedure, shortened: as §1

[3] = target: T3, ~100 representative kinases (Homo sapiens, UniProt O96013); settings: protein PAK4; average of three replicates
T3 construct: Recombinant protein kinase domains with a concentration of 2 μM
T3 sequence (O96013 whole entry, the tested form may be a part): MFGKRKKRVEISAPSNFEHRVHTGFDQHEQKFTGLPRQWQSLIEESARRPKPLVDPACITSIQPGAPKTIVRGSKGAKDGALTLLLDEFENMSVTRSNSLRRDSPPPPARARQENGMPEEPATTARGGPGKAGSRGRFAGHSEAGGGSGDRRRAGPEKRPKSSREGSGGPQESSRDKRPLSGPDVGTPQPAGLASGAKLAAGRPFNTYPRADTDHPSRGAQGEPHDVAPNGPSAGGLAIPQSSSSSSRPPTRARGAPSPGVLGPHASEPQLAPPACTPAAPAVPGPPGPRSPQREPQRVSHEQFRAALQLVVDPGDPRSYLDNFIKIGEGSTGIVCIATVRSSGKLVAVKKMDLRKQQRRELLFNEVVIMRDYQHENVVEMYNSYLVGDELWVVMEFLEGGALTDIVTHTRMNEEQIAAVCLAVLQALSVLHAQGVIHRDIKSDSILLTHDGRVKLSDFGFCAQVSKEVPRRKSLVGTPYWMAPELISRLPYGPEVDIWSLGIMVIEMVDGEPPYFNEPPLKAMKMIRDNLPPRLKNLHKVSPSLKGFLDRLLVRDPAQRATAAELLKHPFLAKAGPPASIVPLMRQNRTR
Procedure, shortened: as §1

[4] = target: T4, ~100 representative kinases (Homo sapiens, UniProt P22830); settings: protein FECH; average of three replicates
T4 construct: Recombinant protein kinase domains with a concentration of 2 μM
T4 sequence (P22830 55-423): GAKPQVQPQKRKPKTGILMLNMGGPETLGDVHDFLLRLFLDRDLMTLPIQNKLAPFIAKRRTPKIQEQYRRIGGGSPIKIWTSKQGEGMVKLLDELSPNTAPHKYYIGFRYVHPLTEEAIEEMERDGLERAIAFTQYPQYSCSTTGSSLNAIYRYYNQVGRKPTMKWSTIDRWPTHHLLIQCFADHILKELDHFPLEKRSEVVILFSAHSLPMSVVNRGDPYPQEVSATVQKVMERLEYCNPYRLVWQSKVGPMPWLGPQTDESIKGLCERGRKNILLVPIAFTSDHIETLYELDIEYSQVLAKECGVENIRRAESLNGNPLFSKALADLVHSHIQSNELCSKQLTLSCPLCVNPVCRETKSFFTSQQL
Procedure, shortened: as §1

[5] = target: T5, ~100 representative kinases (Homo sapiens, UniProt Q96NX5); settings: Protein CAMK1G; average of three replicates
T5 construct: Recombinant protein kinase domains with a concentration of 2 μM
T5 sequence (Q96NX5 whole entry, the tested form may be a part): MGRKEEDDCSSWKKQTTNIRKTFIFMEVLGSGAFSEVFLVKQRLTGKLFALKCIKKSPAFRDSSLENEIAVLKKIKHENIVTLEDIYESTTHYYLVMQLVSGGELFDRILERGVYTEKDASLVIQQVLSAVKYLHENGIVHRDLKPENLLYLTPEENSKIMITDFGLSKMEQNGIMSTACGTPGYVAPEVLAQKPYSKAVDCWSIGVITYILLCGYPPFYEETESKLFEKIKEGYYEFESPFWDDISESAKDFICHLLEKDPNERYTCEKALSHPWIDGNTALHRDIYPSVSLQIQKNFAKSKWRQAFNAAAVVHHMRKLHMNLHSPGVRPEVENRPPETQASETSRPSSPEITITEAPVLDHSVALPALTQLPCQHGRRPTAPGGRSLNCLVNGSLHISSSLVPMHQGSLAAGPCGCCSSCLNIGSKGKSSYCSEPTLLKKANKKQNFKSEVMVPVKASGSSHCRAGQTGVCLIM
Procedure, shortened: as §1

[6] = target: T6, ~100 representative kinases (Homo sapiens, UniProt Q9P289); settings: protein MST4; average of three replicates
T6 construct: Recombinant protein kinase domains with a concentration of 2 μM
T6 sequence (Q9P289 whole entry, the tested form may be a part): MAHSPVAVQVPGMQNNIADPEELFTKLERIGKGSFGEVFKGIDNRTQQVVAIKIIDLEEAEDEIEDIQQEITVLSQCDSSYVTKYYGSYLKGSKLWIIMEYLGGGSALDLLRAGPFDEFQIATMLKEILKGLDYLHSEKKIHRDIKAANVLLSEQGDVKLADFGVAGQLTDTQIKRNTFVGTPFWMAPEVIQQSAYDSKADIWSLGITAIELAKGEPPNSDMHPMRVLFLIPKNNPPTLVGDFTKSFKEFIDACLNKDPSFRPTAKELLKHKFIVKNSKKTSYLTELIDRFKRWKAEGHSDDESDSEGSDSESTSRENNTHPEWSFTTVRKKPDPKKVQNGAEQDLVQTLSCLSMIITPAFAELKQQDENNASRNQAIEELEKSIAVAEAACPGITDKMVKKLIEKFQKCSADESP
Procedure, shortened: as §1

[7] = target: T7, ~100 representative kinases (Homo sapiens, UniProt Q8IU85); settings: Protein CAMK1D; average of three replicates
T7 construct: Recombinant protein kinase domains with a concentration of 2 μM
T7 sequence (Q8IU85 whole entry, the tested form may be a part): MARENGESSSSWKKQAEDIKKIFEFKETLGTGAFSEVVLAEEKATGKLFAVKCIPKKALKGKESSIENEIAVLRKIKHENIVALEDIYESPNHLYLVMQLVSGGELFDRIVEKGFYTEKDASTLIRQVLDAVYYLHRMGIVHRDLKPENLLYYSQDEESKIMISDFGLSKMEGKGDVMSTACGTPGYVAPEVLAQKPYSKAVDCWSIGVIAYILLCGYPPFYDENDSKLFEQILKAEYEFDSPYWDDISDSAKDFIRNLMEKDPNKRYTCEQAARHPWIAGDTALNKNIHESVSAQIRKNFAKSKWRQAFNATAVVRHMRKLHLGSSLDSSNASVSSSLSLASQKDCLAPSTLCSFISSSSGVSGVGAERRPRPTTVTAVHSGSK
Procedure, shortened: as §1

[8] = target: T8, ~100 representative kinases (Homo sapiens, UniProt P48730); settings: Protein CSNK1D; average of three replicates
T8 construct: Recombinant protein kinase domains with a concentration of 2 μM
T8 sequence (P48730 whole entry, the tested form may be a part): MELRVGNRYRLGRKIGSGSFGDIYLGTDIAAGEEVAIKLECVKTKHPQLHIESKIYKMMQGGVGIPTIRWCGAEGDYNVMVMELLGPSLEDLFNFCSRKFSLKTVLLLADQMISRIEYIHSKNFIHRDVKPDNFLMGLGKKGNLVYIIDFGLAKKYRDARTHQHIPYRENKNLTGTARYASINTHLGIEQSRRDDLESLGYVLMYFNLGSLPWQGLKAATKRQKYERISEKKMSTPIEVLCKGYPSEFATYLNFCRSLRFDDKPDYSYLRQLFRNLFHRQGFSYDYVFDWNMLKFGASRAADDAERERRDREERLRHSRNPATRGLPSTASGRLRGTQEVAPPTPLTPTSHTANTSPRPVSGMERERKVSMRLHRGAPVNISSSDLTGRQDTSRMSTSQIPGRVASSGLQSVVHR
Procedure, shortened: as §1

[9] = target: T9, ~100 representative kinases (Homo sapiens, UniProt Q99683); settings: protein MAP3K5; average of three replicates
T9 construct: Recombinant protein kinase domains with a concentration of 2 μM
T9 sequence (Q99683 1-1374): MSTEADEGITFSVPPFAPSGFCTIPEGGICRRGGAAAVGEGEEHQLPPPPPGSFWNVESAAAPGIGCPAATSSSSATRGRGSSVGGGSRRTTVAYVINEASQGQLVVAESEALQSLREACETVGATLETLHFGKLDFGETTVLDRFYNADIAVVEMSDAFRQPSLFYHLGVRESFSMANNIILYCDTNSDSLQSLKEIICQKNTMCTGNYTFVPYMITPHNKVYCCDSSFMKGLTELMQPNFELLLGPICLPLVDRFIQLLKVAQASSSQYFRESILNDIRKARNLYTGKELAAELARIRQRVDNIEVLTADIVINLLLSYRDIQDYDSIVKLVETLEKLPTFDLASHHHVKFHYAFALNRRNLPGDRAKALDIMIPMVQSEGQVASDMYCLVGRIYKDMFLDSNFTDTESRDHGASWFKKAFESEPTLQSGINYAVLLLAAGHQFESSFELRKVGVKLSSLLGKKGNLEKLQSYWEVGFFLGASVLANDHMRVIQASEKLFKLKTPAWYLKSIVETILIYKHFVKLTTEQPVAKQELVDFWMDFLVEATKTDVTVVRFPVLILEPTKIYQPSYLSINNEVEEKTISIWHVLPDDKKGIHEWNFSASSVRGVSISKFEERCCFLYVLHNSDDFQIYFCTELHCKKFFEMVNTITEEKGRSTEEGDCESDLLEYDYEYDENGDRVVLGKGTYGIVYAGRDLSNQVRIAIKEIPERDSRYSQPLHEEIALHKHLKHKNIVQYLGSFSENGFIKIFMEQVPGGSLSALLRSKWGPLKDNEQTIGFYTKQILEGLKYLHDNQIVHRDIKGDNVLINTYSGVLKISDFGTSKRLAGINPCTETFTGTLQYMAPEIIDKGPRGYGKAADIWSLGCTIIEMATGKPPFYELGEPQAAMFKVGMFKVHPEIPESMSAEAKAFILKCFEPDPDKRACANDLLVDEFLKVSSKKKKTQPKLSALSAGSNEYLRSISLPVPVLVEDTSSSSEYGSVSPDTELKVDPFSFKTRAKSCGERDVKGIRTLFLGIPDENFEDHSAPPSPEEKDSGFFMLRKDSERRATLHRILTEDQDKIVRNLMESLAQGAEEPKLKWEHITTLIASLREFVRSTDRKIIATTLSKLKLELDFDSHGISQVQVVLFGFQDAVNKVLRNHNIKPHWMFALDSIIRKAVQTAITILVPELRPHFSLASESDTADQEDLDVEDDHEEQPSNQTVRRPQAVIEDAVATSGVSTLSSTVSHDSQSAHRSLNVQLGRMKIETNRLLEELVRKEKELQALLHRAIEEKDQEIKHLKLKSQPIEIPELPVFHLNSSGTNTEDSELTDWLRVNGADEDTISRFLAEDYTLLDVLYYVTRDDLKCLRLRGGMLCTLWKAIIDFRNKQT
Procedure, shortened: as §1

[10] = target: T10, ~100 representative kinases (Homo sapiens, UniProt P11362); settings: protein FGFR1; average of three replicates
T10 construct: Recombinant protein kinase domains with a concentration of 2 μM
T10 sequence (P11362 22-822): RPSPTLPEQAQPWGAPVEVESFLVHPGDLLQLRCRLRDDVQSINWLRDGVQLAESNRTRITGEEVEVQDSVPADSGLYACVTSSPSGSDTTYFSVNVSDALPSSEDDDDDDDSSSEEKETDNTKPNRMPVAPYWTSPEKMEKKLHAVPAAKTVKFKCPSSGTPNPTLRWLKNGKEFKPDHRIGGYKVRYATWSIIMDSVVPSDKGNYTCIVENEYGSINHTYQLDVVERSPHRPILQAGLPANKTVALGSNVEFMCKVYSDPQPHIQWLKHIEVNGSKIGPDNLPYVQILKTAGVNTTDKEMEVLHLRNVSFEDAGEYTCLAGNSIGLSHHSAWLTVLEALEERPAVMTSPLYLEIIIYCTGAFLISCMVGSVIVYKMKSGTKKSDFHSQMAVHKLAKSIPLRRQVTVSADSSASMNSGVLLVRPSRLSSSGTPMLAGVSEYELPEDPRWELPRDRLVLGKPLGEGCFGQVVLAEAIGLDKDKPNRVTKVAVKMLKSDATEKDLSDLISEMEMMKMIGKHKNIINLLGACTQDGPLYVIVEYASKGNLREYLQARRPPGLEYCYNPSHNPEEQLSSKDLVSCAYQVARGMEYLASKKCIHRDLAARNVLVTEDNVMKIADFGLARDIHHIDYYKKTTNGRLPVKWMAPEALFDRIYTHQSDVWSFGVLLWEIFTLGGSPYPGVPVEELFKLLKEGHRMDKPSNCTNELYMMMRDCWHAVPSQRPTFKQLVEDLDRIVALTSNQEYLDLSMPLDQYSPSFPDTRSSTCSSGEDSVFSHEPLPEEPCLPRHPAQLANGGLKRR
Procedure, shortened: as §1

[11] = target: T11, ~100 representative kinases (Homo sapiens, UniProt Q96RR4); settings: Protein CAMKK2; average of three replicates
T11 construct: Recombinant protein kinase domains with a concentration of 2 μM
T11 sequence (Q96RR4 whole entry, the tested form may be a part): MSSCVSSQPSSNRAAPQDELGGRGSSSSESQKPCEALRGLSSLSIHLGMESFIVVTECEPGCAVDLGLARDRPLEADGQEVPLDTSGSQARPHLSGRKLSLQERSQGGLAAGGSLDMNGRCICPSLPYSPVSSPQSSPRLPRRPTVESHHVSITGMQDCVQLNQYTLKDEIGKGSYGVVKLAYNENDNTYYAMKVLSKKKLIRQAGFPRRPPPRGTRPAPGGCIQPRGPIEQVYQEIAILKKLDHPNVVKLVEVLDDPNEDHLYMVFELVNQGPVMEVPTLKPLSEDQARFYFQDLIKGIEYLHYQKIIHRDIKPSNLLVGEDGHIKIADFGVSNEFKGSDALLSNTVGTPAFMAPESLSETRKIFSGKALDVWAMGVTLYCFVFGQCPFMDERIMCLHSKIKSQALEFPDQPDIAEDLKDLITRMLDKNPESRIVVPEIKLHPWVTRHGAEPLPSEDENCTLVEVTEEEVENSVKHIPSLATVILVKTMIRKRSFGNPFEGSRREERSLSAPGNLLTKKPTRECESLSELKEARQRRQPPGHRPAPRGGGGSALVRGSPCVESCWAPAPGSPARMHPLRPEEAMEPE
Procedure, shortened: as §1

[12] = protein MAPK14, average of three replicates

| SMILES | dTm [1] | dTm [2, 12] | dTm [3] | dTm [4] | dTm [5] | dTm [6] | dTm [7] | dTm [8] | dTm [9] | dTm [10] | dTm [11] | dTm [2] |
| --- | --- | --- | --- | --- | --- | --- | --- | --- | --- | --- | --- | --- |
| O=C(Nc1cccc(-c2c[nH]c3ncnc(N4CCOCC4)c23)c1)C1(C(=O)Nc2ccc(F)cc2F)CC1 [Compound 23] | -0.45 K | -0.38 K | -0.00913 K | 0.12 K | 1.64 K | 3.92 K | -1.25 K | 1.02 K | 2.39 K | 1.14 K | 5.31 K | – |
| Cc1cc(F)ccc1NC(=O)C1(C(=O)Nc2cccc(-c3c[nH]c4ncnc(N5CCOCC5)c34)c2)CC1 [Compound 24] | 0.16 K | -0.59 K | -0.47 K | 0.38 K | 0.49 K | 2.44 K | -2.03 K | 1.47 K | 1.15 K | 0.81 K | 6.43 K | – |
| O=C(Nc1cccc(-c2c[nH]c3ncnc(N4CCOCC4)c23)c1)C1(C(=O)Nc2cc(Br)c(F)cc2F)CC1 [Compound 25] | 0.32 K | 2.03 K | 0.88 K | -0.79 K | 4.91 K | 1.80 K | 3.75 K | -0.29 K | 2.91 K | 0.52 K | 6.31 K | – |
| O=C(Nc1cccc(-c2c[nH]c3ncnc(N4CCOCC4)c23)c1)C1(C(=O)Nc2ccc(F)c(Br)c2F)CC1 [Compound 26] | 0.25 K | 2.01 K | 0.78 K | 0.09 K | 4.69 K | 1.39 K | 2.09 K | 0.95 K | 3.03 K | 0.99 K | 5.53 K | – |
| O=C(Nc1cc(F)cc(Br)c1)C1(C(=O)Nc2cccc(-c3c[nH]c4ncnc(N5CCOCC5)c34)c2)CC1 [Compound 27] | 0.40 K | 1.86 K | 0.52 K | -2.87 K | 3.15 K | 3.14 K | 1.52 K | -0.55 K | 3.40 K | 0.76 K | 3.64 K | – |
| CC(C)(C)c1cc(NC(=O)Nc2cccc(-c3c[nH]c4ncnc(N5CCOCC5)c34)c2)n(-c2ccc3ncccc3c2)n1 [Compound 28] | 0.98 K | 3.86 K | 0.80 K | 1.86 K | 6.01 K | 6.29 K | 2.13 K | 1.22 K | 3.36 K | 8.37 K | 12.27 K | – |
| CCSc1nc(NC)c2c(-c3cccc(NC(=O)Nc4cc(C(C)(C)C)nn4-c4ccc(C)cc4)c3)c[nH]c2n1 [Compound 32] | -0.61 K | 5.12 K | 0.61 K | -4.54 K | 0.27 K | -2.75 K | 0.45 K | 0.85 K | 0.73 K | 0.60 K | 2.43 K | – |
| COc1cc2c(Oc3ccc(NC(=O)C4(C(=O)Nc5ccc(F)cc5)CC4)cc3F)ccnc2cc1OCCCN1CCOCC1 [Foretinib, reference compound] | 0.60 K | – | 0.34 K | -11.10 K | 3.09 K | 3.65 K | 0.45 K | 0.91 K | 2.33 K | 5.33 K | 10.75 K | 6.85 K |
